In patent US20250333745A1, “METHODS AND COMPOSITIONS FOR TREATMENT OF POLYCYSTIC KIDNEY DISEASE” (Regulus Therapeutics Inc., priority 2016, published 2025):
One block for each compound: values may come before it.

Legend:
[1] = In vitro metabolic stability in monkey liver lysate; format: in vitro ADME; conditions: 24-hour incubation of RG4326
Protocol: (§1) Due to their reduced capacity for serum protein binding, which is a property that drives oligonucleotide distribution in the body, short oligonucleotides are not necessarily expected to have pharmacokinetic properties that make them suitable for use as drugs. RG4326 was incubated in mouse, monkey or human liver homogenate. The identity and concentration of RG4326 and metabolites was determined after a 24-hour incubation. RG4326 and metabolites were extracted using liquid-liquid extraction (LLE) and/or solid-phase extraction (SPE), which were then analyzed for identity and concentration using ion-pairing-reversed-phase high performance liquid chromatography coupled with time-of-flight mass spectrometry (IP—RP-HPLC-TOF).

[2] = In vitro metabolic stability in human liver lysate; format: in vitro ADME; conditions: 24-hour incubation of RG4326
Protocol: as §1

[3] = In vitro metabolic stability in mouse liver lysate; format: in vitro ADME; conditions: 24-hour incubation of RG4326
Protocol: Metabolic stability was evaluated by incubating each anti-miR-17 compound in a mouse liver lysate. After 24 hours, the percentage of intact compound remaining is calculated. Compounds that are not stable following a 24-hour incubation are potentially not stable in vivo.
as §1

Pcy mice = assay: Efficacy in the Pcy model of PKD; format: in vivo, mouse
Source text: Two experimental models of PKD were used to evaluate efficacy. Pkd2-KO mice spontaneously develop polycystic kidney disease, and were used as a model of ADPKD. See Patel et al., PNAS, 2013; 110 (26): 10765-10770. Pcy mice bearing a mutation in Nphp3 spontaneously develop polycystic kidney disease, with a slower progression of disease than that observed in the Pkd2-KO mice. The Pcy model is used as a model of nephronophthisis. See Happe and Peters, Nat. Rev. Nephrol., 2014; 10:587-601.
Cyst index is a histological measurement of cystic area relative to total kidney area. For this analysis, one kidney was perfused with cold PBS and 4% (wt/vol) paraformaldehyde and then harvested. Kidneys were fixed with 4% paraformaldehyde for 2 hours and then, embedded in paraffin for sectioning. Sagittal sections of kidneys were stained with hematoxylin and eosin (H&E). All image processing steps were automated and took place in freely available and open source software: An R1 script which used functions from the EBImage Bioconductor package2 and the ImageMagick3 suite of image processing tools. Kidney H&E images in Aperio SVS format were converted to TIFF images, and the first frame was retained for image analysis. First, the total kidney section area was calculated using image segmentation. Image segmentation was similarly used to find all internal structures including kidney cyst. A filter was applied to remove all objects less than a mean radius of three pixels. The cystic index is the image area associated with cysts divided by the total kidney areas. Cystic index was separately calculated for longitudinal and transverse kidney sections for each individual animal. Combined cystic index of individual animals were compared for each treatment groups.
RG4326 was tested in the Pcy mouse model. Wild-type mice were used as control group. From four weeks of age, Pcy mice were treated once per week via subcutaneous injection with RG4326 at a dose of 25 mg/kg, tool anti-miR-17 at a dose of 25 mg/kg, control oligonucleotide RG5124 at a dose of 25 mg/kg, or PBS. Each treatment group contained 15 male mice. Three treatments were administered on […] days of age, and weekly thereafter at 6, 7, 8, 9, 10, 11, 12, 13, and 14 weeks of age. Also tested was tolvaptan, a vasopressin V2-receptor antagonist (VRA) that is prescribed to some patients with polycystic kidney disease. Mice were sacrificed at 15 weeks of age. Body weight was recorded. One kidney was extracted and weighed and the other processed for histological analysis to calculate cyst index as described for the study in the Pkhd1/cre; Pkd2^F/F. Blood urea nitrogen (BUN) level and serum creatinine level were measured. Statistical significance was calculated by one-way ANOVA with Dunnett's multiple correction.

[4] = Tissue accumulation in kidney and liver (kidney-to-liver ratio); format: in vivo, mouse; conditions: single dose 30 mg/kg, seven days; for Kidney-to-Liver Ratio PKD Mice: JCK mice
Protocol: Pharmacokinetic properties and tissue distribution of select compounds were assessed in wild type C57BL6 mice and JCK mice (an experimental model of PKD). Compound was administered to wild type mouse at a dose of 0.3, 3, or 30 mg/kg, or to JCK mice at a dose of 3, 30, or 100 mg/kg. After seven days, mice were sacrificed. Kidney and liver tissues were collected. Concentration of anti-miR-17 compound was measured in liver and kidney. Compounds that accumulate to a greater level in kidney, relative to liver (i.e., have a higher kidney-to-liver ratio) were preferred.
(§2) The miPSA was used to assess the potency of each compound, measured by the displacement score, in wild type and JCK mice. Tissue accumulation of anti-miR-17 compound was measured by extraction of compound using liquid-liquid extraction (LLE) and/or solid-phase extraction (SPE), followed by analysis of the identity and concentration of compound using ion-pairing-reversed-phase high performance liquid chromatography coupled with time-of-flight mass spectrometry (IP—RP-HPLC-TOF).
(§3) Wild type mice were administered a single dose of 3 mg/kg for the miPSA analysis, and a single dose of 30 mg/kg for the tissue accumulation analysis. JCK mice were administered a single dose of 30 mg/kg for both the miPSA and tissue accumulation analyses. Kidney tissue was collected seven days following the administration of anti-miR-17 compound. […] A higher kidney-to-liver ratio is generally preferred for a disease where the primary site of action is the kidney.

miR-17 [5] = assay: microRNA polysome shift assay (miPSA), kidney target engagement; format: in vivo, mouse; design: miPSA Score Wild Type Mice / miPSA Score PKD Mice / miPSA displacement score (mean): scale not given here; conditions: kidney, seven days; for miPSA Score PKD Mice: JCK mice, single dose 30 mg/kg; for miPSA Score Wild Type Mice: single dose 3 mg/kg
Protocol: (§4) In vivo potency was evaluated using the microRNA polysome shift assay (miPSA). This assay was used to determine the extent to which compounds directly engage the miR-17 target in the kidney in normal and PKD mice. The miPSA relies on the principle that active miRNAs bind to their mRNA targets in translationally active high molecular weight (HMW) polysomes, whereas the inhibited miRNAs reside in the low MW (LMW) polysomes. Treatment with anti-miR results in a shift of the microRNA from HMW polysomes to LMW polysomes. Thus, the miPSA provides a direct measurement of microRNA target engagement by a complementary anti-miR (Androsavich et al., Nucleic Acids Research, 2015, 44: e13).
as §2, §3
as §4, with “The” for “In vivo potency was evaluated using the”, “(miPSA),” for “(miPSA). This assay”, “identify” for “determine the extent to which”, “compounds that” for “compounds”, “engage” for “engage the”, “miR-17” for “miR-17 target”
For this experiment, the PKD model selected was the JCK model, a mouse model of slowly progressing renal cystic disease associated with the same gene that causes human nephronophthisis type 9. Renal cysts in this mouse develop in multiple regions of the nephron.
C57BL6 mice were treated with a single, subcutaneous dose of 0.3, 3, and 30 mg/kg of RG4326 or tool anti-miR-17 (described in Example 1). JCK mice were treated with a single, subcutaneous dose of 3, 30, and 100 mg/kg of RG4326 or tool anti-miR-17. PBS treatment was used as an additional control. At seven days post-treatment, mice were sacrificed, and kidney tissue was isolated for the miPSA. […] The displacement scores following treatment with RG4326 were greater than the displacement scores following treatment with the tool anti-miR-17 compound. The data for wild-type mice and JCK mice are also shown in FIG. 3A and FIG. 3B, respectively.
Pharmacokinetic behavior was assessed by administering a single subcutaneous 30 mg/kg dose of RG4326 or tool anti-miR-17 compound to wild-type mice. At one hour, four hours, eight hours, one day, seven days, 14 days, 28 days and 56 days following the single injection, mice were sacrificed and the mean concentration of anti-miR compound in kidney and liver tissue was measured (ug/g) as described above. The area-under-curve (AUC) was calculated for kidney and liver tissue using the formula ug*h/g, where ug is the amount of oligonucleotide in the tissue, h is the timepoint of tissue collection in hours, and g is the weight of the tissue. The ratio of kidney AUC to liver AUC was determined. Kidney tissue was also processed to the miPSA, to determine target engagement for each compound in this study. […]

miR-17 [6] = assay: miR-17 luciferase reporter assay in HeLa cells; format: cell-based; conditions: mean
Protocol: In vitro potency was evaluated using a luciferase reporter assay. A luciferase reporter plasmid for miR-17, with […] in the 3′-UTR of the luciferase gene. Compounds of longer lengths were selected if their maximum inhibition was greater than that of the tool anti-miR-17 compound. As shorter compounds, such as 9-mers, are typically not maximally active in the same assay conditions used for longer compounds, shorter compounds were selected based on maximum inhibition relative to appropriate control compounds. In this way, compounds that are diverse in both length and chemical composition were included in further testing.
One assay employed was the luciferase assay. […] Accordingly, the luciferase assay transfection conditions were optimized for short anti-miR-17 compounds, so that the inhibitory activity of the compounds could be measured.
The luciferase reporter plasmid for miR-17 contained a fully complementary miR-17 binding site in the 3′-UTR of the luciferase gene. HeLa cells were transfected with the microRNA mimic and its cognate luciferase reporter, followed by transfection with anti-miR-17 at doses of […], 3, 10, 30, 100, and 300 nM. At the end of the 24-hour transfection period, luciferase activity was measured. As shown in Table 2-1, RG4047, while not as potent as RG4326, inhibited miR-17 activity in a dose dependent manner. SD indicates standard deviation.
Additional in vitro assays were conducted to further explore the potency of RG4326. A luciferase reporter assay was used to test the ability of RG4326 to inhibit the miR-17 family members miR-17, miR-20a, miR-93, and miR-106b. A luciferase reporter plasmid for each of miR-20a, miR-93, and miR-106b was constructed, with a fully complementary microRNA binding site in the 3′-UTR of the luciferase gene. HeLa cells were transfected with the microRNA mimic and its cognate luciferase reporter, followed by transfection with anti-miR-17 at a dose of 100 nm. […] As RG4326 is 100% complementary to the other miR-17 family members not tested, miR-20b and […], it is expected to inhibit these microRNAs as well.

[7] = Safety evaluation of RG4047 (pro-inflammatory signal in kidney and liver)
Protocol: In in vitro assays, the potential for toxicity was assessed using a biochemical fluorescent binding assay (FBA) and a liver or kidney slice assay. The FBA is performed by incubating a fluorescent dye with each compound, and immediately measuring fluorescence. Highly fluorescent compounds have the potential to produce toxicity in vivo. The liver or kidney slice assay is performed by incubating a slice of tissue from a core liver sample isolated from rat. Following a 24-hour incubation, RNA is extracted from the tissue slice, and the expression levels of 18 pro-inflammatory genes are measured. An induction in pro-inflammatory gene expression indicates a potential for pro-inflammatory effects in vivo.
Additional in vivo toxicology assessments were performed by administering to normal mice (Sv129 mice) a single subcutaneous injection of 300 mg/kg of anti-miR-17 compound. After four days, mice were sacrificed, blood was collected for serum chemistry analysis, liver and spleen were weighed, and RNA was isolated from kidney and liver tissues. The expression level of a pro-inflammatory gene, interferon-induced protein with tetratricopeptide repeats (IFIT), was measured.
RG4047 was evaluated for potency in vivo, safety, and distribution to kidney and liver.

[8] = 25 mg/kg s.c. for oligonucleotides, sacrificed at 15 weeks of age

Compound: 5′-ASGSCMAF-3′ [Metabolite 2]
Ex Vivo Liver Lysate (% Analyte), Monkey [1]: 2.3% | Ex Vivo Liver Lysate (% Analyte), Human [2]: 0.7% | Ex Vivo Liver Lysate (% Analyte), Mouse [3]: 0.6%

Compound: 5′-ASGSCMAFCF-3′ [Metabolite 1]
Ex Vivo Liver Lysate (% Analyte), Monkey [1]: 1.8% | Ex Vivo Liver Lysate (% Analyte), Human [2]: 0.6% | Ex Vivo Liver Lysate (% Analyte), Mouse [3]: 0.3%

Compound: Cc1ccccc1C(=O)Nc1ccc(C(=O)N2CCCC(O)c3cc(Cl)ccc32)c(C)c1 (stereo not drawn) [Tolvaptan, tolvaptan]
efficacy on KW/BW ratio, BUN or cyst index (in words) (Pcy mice): not efficacious | BUN (mean) (Pcy mice; [8]): 24.4 | Cystic Index (mean) (Pcy mice; [8]): 0.26 | KW/BW Ratio (mean) (Pcy mice; [8]): 20.1

Kidney-to-Liver Ratio PKD Mice [4]: 9.4 | Kidney-to-Liver Ratio Wild Type Mice [4]: 24.9
Compound: ASGMCFAFCFUFUFUMGS [Compound 4327]
miPSA Score PKD Mice (miR-17 [5]): 1.53 | miPSA Score Wild Type Mice (miR-17 [5]): 2.85

Kidney-to-Liver Ratio PKD Mice [4]: 5.7 | Kidney-to-Liver Ratio Wild Type Mice [4]: 12.4
Compound: ASGSCMAMCMUMUMUSGS [Compound 4325]
miPSA Score PKD Mice (miR-17 [5]): 2.00 | miPSA Score Wild Type Mice (miR-17 [5]): 1.82

Kidney-to-Liver Ratio PKD Mice [4]: 3.9 | Kidney-to-Liver Ratio Wild Type Mice [4]: 5.0
Compound: ASGSCMASCMUSUMUSGS [Compound 4324]
miPSA Score PKD Mice (miR-17 [5]): 2.53 | miPSA Score Wild Type Mice (miR-17 [5]): 2.81

Kidney-to-Liver Ratio PKD Mice [4]: 2.1 | Kidney-to-Liver Ratio Wild Type Mice [4]: 4.4
Compound: ASGSCSASCSUSUSUSGS [RG4047]
Luciferase Fold Derepression (miR-17 [6]; 0.001 nM anti-miR-17, 24-hour transfection): 1 | Luciferase Fold Derepression (miR-17 [6]; 3 nM anti-miR-17, 24-hour transfection): 1.6 | Luciferase Fold Derepression (miR-17 [6]; 10 nM anti-miR-17, 24-hour transfection): 2.2 | Luciferase Fold Derepression (miR-17 [6]; 30 nM anti-miR-17, 24-hour transfection): 3.5 | Luciferase Fold Derepression (miR-17 [6]; 100 nM anti-miR-17, 24-hour transfection): 8.2 | Luciferase Fold Derepression (miR-17 [6]; 300 nM anti-miR-17, 24-hour transfection): 7.5 | pro-inflammatory signal (in words) [7]: slight pro-inflammatory signal in both kidney and liver | miPSA Score PKD Mice (miR-17 [5]): 1.80 | miPSA Score Wild Type Mice (miR-17 [5]): 1.76
